Measured values published in article PMC10386076, “Discovery of RC-752, a Novel Sigma-1 Receptor Antagonist with Antinociceptive Activity: A Promising Tool for Fighting Neuropathic Pain” (Pharmaceuticals, 2023).
Like-named read-outs stand apart in the source and are kept apart here.

Experiments:
[1] = test system: rats; assay: Chung's neuropathic pain model (spinal nerve ligation), von Frey mechanical allodynia; format: in vivo, rat
Text: This procedure involves the surgical binding or tying off of the left L5 and L6 spinal nerves in rats and causes long-lasting behavioral signs of mechanical allodynia and ongoing pain. Mechanical allodynia refers to the perception of pain caused by normally non-painful stimuli, such as touch or pressure. […] Mechanical stimulation was then induced using von Frey filaments, a set of calibrated nylon fibers that are used to apply mechanical pressure to the skin or other tissues to measure pain sensitivity. The mechanical threshold for pain was established with the “up and down method”.
ICR male mice weighing 20–25 g (5 weeks old) and SD rats weighing 200–250 g (7 weeks old) were used in the experiments. All the animals were purchased from SAMTACO (Osan-si, Korea). Six mice/group and eight rats/group were used for this study. Four groups of mice were utilized for the assessment of the antinociceptive activity in the formalin test (one vehicle and three doses; 1, 10, and 20 mg/kg given i.p.), while five groups of rats were used for the assessment of the antinociceptive activity in Chung’s neuropathic pain model (one vehicle and four doses; 5, 10, 25 and 50 mg/kg given i.p.). The ICR mice and SD rats were maintained on a 12 hr light–dark cycle (light on between 7:00 p.m. and 7:00 a.m.) and allowed free access to food and water. The temperature and humidity of the animal room were maintained at 22 ± 2 °C and 50 ± 5%, respectively. In this study, we followed the national guidelines for conducting animal experiments. […] All efforts were made to minimize animal suffering and reduce the number of animals used.
Ligation of the left L5 and L6 spinal nerves in the rats was used as an experimental model of neuropathic pain. […] The surgical procedure was performed according to the method described by Kim and Chung [80]. The left L5 spinal nerve was isolated and ligated tightly with 6–0 black silk. The wound was closed in anatomical layers, with the skin being closed with stainless steel wound clips. The animals were then allowed to recover after the surgery. The behavioral signs representing neuropathic pain (mechanical allodynia) were examined in all the rats for 2 weeks postoperatively. The mechanical withdrawal threshold to the application of a von Frey filament (Stoelting, Wood Dale, IL, USA) was measured by using the up–down method [81].The most sensitive area was first determined by poking various areas of the paw with a von Frey hair. Next, the actual test was conducted by gently poking various areas of the spot with the filament. […] The frequency of foot withdrawal expressed as a percentage was used as the index of mechanical allodynia. […] The results were calculated using the one-way analysis of variance (ANOVA) followed by Bonferroni’s post hoc test. […]

[2] = In vitro metabolic stability in mouse liver microsomes; format: in vitro ADME; conditions: oxidative conditions
Method: (§1) The in vitro metabolic stability of compound (R/S)-1d was evaluated in mouse plasma and hepatic microsomes.
Mouse liver microsomes (Sigma Aldrich, CD-1 male, pooled) at 0.5 mg/mL were preincubated with the test compound (R/S)-1d dissolved in DMSO at 1 μM in phosphate buffer 50 mM, pH 7.4, and 3 mM MgCl2 for 10 min at 37 °C [75]. The reaction was then started by adding the cofactor mixture solution (NADP, glucose-6-phosphate, glucose-6-phosphate dehydrogenase in 2% NaHCO3). The samples were taken at 0, 10, 30, 45, and 60 min and added to acetonitrile to stop the reaction (n = 3). The samples were then centrifuged, and the supernatant was analyzed by LC-MS/MS to quantify the amount of compound. A control sample without cofactor was always added to check the chemical stability of the test compound. Two reference compounds of known metabolic stability, 7-ethoxycoumarin (7-EC) and propranolol, were present in parallel testing. A fixed concentration of verapamil was added to every sample as an internal standard for LC-MS/MS analyses. The percentage of the area of the test compound remaining at the various incubation times was calculated with respect to the area of the compound at time 0 min.
The intrinsic clearance (Cli) was calculated by the equation: Cli (μL/min/mg) = k/microsomal conc. × 1000 where k is the rate constant (min^−1) and the microsomal protein conc. = 0.5 mg protein/mL. The rate constant k (min^−1), derived for the exponential decay equation (peak area/IS vs. time), was used to calculate the rate of Cli.
The samples were analyzed under the following conditions: UFLC LC-20 Shimadzu coupled with an API 3200 triple-quadrupole (ABSciex); eluents, (phase A) water + 0.1% trifluoroacetic acid (TFA), (phase B) CH3CN + 0.1% TFA; flow rate, 0.3 mL/min; column, Gemini-Nx 5 μm C18 110A (50 × 2.00 mm) at 35 °C; and injection volume, 5 μL. LC–MS/MS analyses were carried out using an ESI(+) interface in a multiple reaction monitoring mode (MRM). The conditions and MRM transitions applied to the compounds are described in Table 3. […]

[3] = test system: CHME-5 (human microglial cells); assay: MTS cytotoxicity assay, CHME-5; format: cell-based; conditions: for cell survival: CHME-5, 100 μM, all time points
Method: The early toxicity assays included in vitro cytotoxicity against two human cell lines, namely MRC-5 (human normal lung fibroblasts) and CHME-5 (human microglial cells) and an in vivo zebrafish model. The cell lines MRC-5 and CHME-5 were exposed for 24, 48, and 72 h to increasing concentrations of the tested compounds (from 0.1 to 100 µM).
A CellTiter 96® AQueous One Solution Cell Proliferation Assay (Promega, Milan, Italy) was used on cells seeded onto a 96-well plate at a density of 9 × 10^3 cells per well. The effect of the test compound was evaluated at four different concentrations (0.1, 1, 10, and 100 μM) after 24 h of continued exposure. Two independent experiments were performed for each concentration. The optical density (OD) of the treated and untreated cells was determined at a wavelength of 490 nm using a plate reader. The data were elaborated with the GraphPad Prism 5 program.

[4] = test system: zebrafish embryos; assay: In vivo toxicity in zebrafish embryos; design: species or system zebrafish (Danio rerio); conditions: 5 dpf; for embryo phenotype: 0.1 μM and 1 μM; for morphological score: score 5 normal to 0.5 absent; for embryo death at the highest dose: 100 μM
Method: The in vivo toxicity was evaluated using the predictive zebrafish animal model, which is suitable for screening drugs for potential toxicity in the nervous, cardiovascular, and digestive system. Zebrafish embryos were exposed to increasing concentrations (from 0.1 to 100 μM) of compounds (R/S)-1c and (R/S)-1d immediately after the eggs’ fertilization. The mortality rate and the kind of developmental deficiencies were evaluated at 5 days post-fertilization (dpf). […] A decrease in the embryo vitality rate and an increase in the entity of damages to the vital structures became more evident at higher concentrations (Figure 7A, Table S2). Compound (R/S)-1c induced embryo death (100% of embryos) at 10 μM, whereas (R/S)-1d caused the death of 5 embryos out of 10 at the same concentration. Moreover, among the living embryos, morphological abnormalities, mainly affecting the shape of the tail, heart, and skin pigmentation, were observed (Figure 7B–E, Table S2). […] Furthermore, the swim bladder was not well inflated, and oedema was evident.
The Tg(GFAP:GFP) zebrafish (Danio rerio) were a kind gift from the Department of Biology, University of Padova (Italy), and were maintained in a re-circulatory system at 28 °C in a light/dark cycle of 14/10 h. They were fed three times a day with dry food and Artemia. The zebrafish embryos and larvae were used for the experiments until 5 days post-fertilization (dpf); mating between 2 females and 1 male was set up the day before the test. The eggs were preserved from predation by adult fish using a plastic separator in the tanks. The eggs were collected right after spawning and used in the teratogenicity experiments. The zebrafish husbandry procedures were performed according to the Directive 2010/63/EU and in compliance with the local animal welfare regulations (authorization n. prot. 18,311/2016; released by the “Comune di Meldola”, 9 November 2016).
The toxicity evaluation was performed as previously reported. Briefly, the eggs were collected, rinsed out with embryo medium (for 1 L of distilled water: 0.1 g sodium bicarbonate, 0.1 g instant ocean, 0.19 g calcium sulphate) and put in different Petri dishes with the same medium; only the unscathed embryos were selected. Generally, 8 embryos per untreated control and treatment concentrations were cultured. The eggs were treated with an increasing concentration of (R/S)-1c and (R/S)-1d, starting from 1 h post-fertilization. They were incubated at 28 °C for about 5 days (without changing the media) in order to allow exposure to the compounds throughout all development stages. The teratogenic effects were evaluated after 5 days from treatment with morphological and viability observations. The experiment was performed in octuplicate, and the data were assessed using a sample score sheet, as reported by Brannen KC and colleagues.

[5] = test system: mice; assay: Formalin-induced licking paw test; format: in vivo; conditions: Mus musculus
Method: This is a model of persistent pain in which the nociceptive response produced by formalin is quantified by measuring the time spent by the mouse licking the injected paw. The intraplantar administration of formalin (2%, 20 μL) produces a biphasic nocifensive behavioral response (i.e., biting or licking the injected hind paw). The acute nociceptive phase, reflecting the chemical activation of sensory C-fibers, lasts for the first 5 min, while the second inflammatory phase takes place between 20 and 30 min and corresponds with the development of nociceptive sensitization in the dorsal horn of the spinal cord.
ICR male mice weighing 20–25 g (5 weeks old) and SD rats weighing 200–250 g (7 weeks old) were used in the experiments. […]
The formalin-induced licking paw test was modified from the method described by Dubuisson and Dennis [79]. […] Each mouse was then placed in an individual clear plastic observational chamber (15 × 15 × 15), and the pain response was recorded for a period of 30 min. The summation of time (in seconds) spent in licking and biting responses of the injected paw during each 5 min block was measured as an indicator of the pain response. The first period (early phase) was recorded 0–5 min after the injection of formalin, and the second period (late phase) was recorded 20–30 min after the injection. […] The data were expressed as mean values (SEM). […]

[6] = In vitro metabolic stability in mouse plasma; format: in vitro ADME; conditions: after 240 min of incubation
Method: as §1

[7] = CHME-5, concentrations ≤10 μM, 24, 48 and 72 h

OCC(CCN1CCCCC1)c1ccc(-c2ccccc2)cc1 (stereo not drawn) [Compound 1d, 2-([1,1’-biphenyl]-4-yl)-4-(piperidin-1-yl)butan-1-ol]
time the antinociceptive effect was extended ([1]; i.p. 50 mg/Kg): up to 90 min
antinociceptive effect (mechanical allodynia) ([1]; i.p. 5 and 10 mg/Kg): No significative effect
time the antinociceptive effect was sustained ([1]; i.p. 25 and 50 mg/Kg): up to 60 min
antinociceptive effect (mechanical allodynia) ([1]; i.p. 25 and 50 mg/Kg, 30 min after administration): restore the normal nociceptive functionality
half-life at 1 μM ([2]; male, CD-1, liver microsomes (pooled), pH 7.4, mouse hepatic microsomes 0.5 mg/mL, 1 μM): 7.2 ± 0.3 min
Cli ([2]; mouse hepatic microsomes 0.5 mg/mL, 1 μM): 192 ± 7 µL/min/mg
in vitro clearance classification ([2]; mouse hepatic microsomes): high clearance
cytotoxicity ([3]; CHME-5, 100 µM, 24 and 48 h of exposure): no significative cytotoxicity
survival rate ([3]; CHME-5, 100 µM, 72 h): higher than 50%
cell survival [3]: reduced the survival
cytotoxicity [3, 7]: no cytotoxicity
embryo phenotype [4]: normal and vital phenotype
morphological score ([4]; 0.1 μM): 5
morphological score ([4]; 1 μM): 4
death of embryos ([4]; 10 μM): 5 embryos out of 10
morphological score ([4]; 10 μM): 1
embryo death at the highest dose [4]: death of all the zebrafish embryos
ED50 ([5]; read-out: ED50, first phase of the formalin test): 13 mg/kg
ED50 ([5]; mice, i.p. 1, 10, 20 mg/Kg 30 min before formalin, 20–30 min, paw licking time, read-out: ED50, second phase of the formalin test): 2.17 mg/kg
compound remaining unaltered [6]: approximately 100%

CN(CCC(CO)c1ccc(-c2ccccc2)cc1)Cc1ccccc1 (stereo not drawn) [Compound 1c, 3-([1,1’-biphenyl]-4-yl)-N-benzyl-4-hydroxy-N-methylbutanamine]
cytotoxicity ([3]; CHME-5, 100 µM, 24 h of exposure): evident cytotoxic effects
cell survival [3]: reduced the survival
cytotoxicity [3, 7]: no cytotoxicity
embryo phenotype [4]: normal and vital phenotype
morphological score ([4]; 0.1 μM): < 4
embryo death ([4]; 10 μM): 100 % of embryos
embryo death at the highest dose [4]: death of all the zebrafish embryos
